Laboratory results: publication PMC6269799, “Synthesis and Trypanocidal Activity of Novel 2,4,5-Triaryl-N-Hydroxylimidazole Derivatives” (Molecules, 2013)
“And” between values parts separate entries of the source, which are not always exact repeats. Equal values may be shown once. Read-outs that look alike come from different tables or passages of the source.

Legend:
[1] = test system: bloodstream trypomastigote forms of T. cruzi (Y strain); assay: Activity against bloodstream trypomastigote forms; assay type: cell-based, Trypanosoma cruzi; settings: in vitro, mean ± standard deviation of at least four separate experiments, read-out: IC50 (trypanocidal activity)
Protocol: The trypanocide profiles of the new TAI derivatives 3–12 was evaluated in vitro using bloodstream trypomastigote forms of T. cruzi (Y strain) isolated from infected Swiss mice and are summarised in Table 1.
Stock solutions of NAH derivatives were prepared in DMSO. Bloodstream trypomastigote forms of T. cruzi (Y strain) were isolated from infected Swiss mice and re-suspended with Dulbecco’s modified Eagle medium plus 10% foetal calf serum (DMES) to a parasite concentration of 10 × 10^6 cells/mL. This suspension (100 μL) was added to the same volume of each NAH derivative, previously prepared at twice the desired concentrations in DMES. Stock solutions of the NAH derivatives were prepared in dimethylsulfoxide (DMSO), and they were assayed in the range of 0.5 to 2000 μg/mL. The final concentration of DMSO never exceeded 0.5%, thus, it had no deleterious effect on the parasites.

[2] = test system: macrophage cell line J774; assay: Cytotoxic effect on murine macrophages (Alamar Blue assay); assay type: cell-based
Protocol: (§1) Cellular viability in the presence and absence of TAI derivatives (4–6) was determined using Alamar Blue assay (Invitrogen). The macrophage cell line J774 was seeded into black clear flat-bottomed 96-well plates in a density of […]. After 1 h of incubation in controlled atmosphere (5% CO2, 37 °C),cells received fresh medium with or without Tween 20 (3%), DMSO (0.5%) and the TAI compounds (1 to 100 μM) in a quadruplicate assay. After 21 h of incubation in the previous conditions, 20 μL of Alamar Blue solution was added to each well and after 3 h, fluorescence was measured using SpectraMax M5/M5^e microplate reader (Molecular Devices; λexc = 555 nm, λem = 585 nm).

[3] = as above; assay type: cell-based; settings: mouse, J774 macrophage cell line, murine macrophages J774, 21 h after the treatment
Protocol: as §1

| Compound | IC50 ([1]; Trypanosoma cruzi) [µM] | melting point | other results |
| --- | --- | --- | --- |
| Cn1c([N+](=O)[O-])cnc1-c1c(-c2ccccc2)nc(-c2ccccc2)n1O [Compound 3, 1-Methyl-5-nitro-2',5'-diphenyl-1H,3'H-2,4'-biimidazol-3'-ol] | 108 ± 5.65 | 217 to 218 °C | – |
| Cn1c([N+](=O)[O-])cnc1-c1c(-c2ccccc2)nc(-c2ccc(O)cc2)n1O [Compound 9, 2'-(4-Hydroxyphenyl)-1-methyl-5-nitro-5'-phenyl-1H,3'H-2,4'-biimidazol-3'-ol] | 294 ± 28 | – | – |
| Cn1c([N+](=O)[O-])cnc1-c1c(-c2ccccc2)nc(-c2ccc([N+](=O)[O-])cc2)n1O [Compound 7, 1-Methyl-5-nitro-2'-(4-nitrophenyl)-5'-phenyl-1H,3'H-2,4'-biimidazol-3'-ol] | 242 ± 37.6 | 361 to 362 °C | – |
| Cn1c([N+](=O)[O-])cnc1-c1c(-c2ccccc2)nc(-c2ccc(O)c(O)c2)n1O [Compound 10, 4-(3'-Hydroxy-1-methyl-5-nitro-5'-phenyl-1H,3'H-2,4'-biimidazol-2'-yl)benzene-1,2-diol] | 360 ± 24.7 | – | – |
| O=C(Cn1ccnc1[N+](=O)[O-])NCc1ccccc1 [Bzn, benznidazole, reference compound] | 10.8 ± 0.4 | – | – |
| Cn1c([N+](=O)[O-])cnc1-c1c(-c2ccccc2)nc(-c2ccc(Br)cc2)n1O [Compound 6, 2'-(4-Bromophenyl)-1-methyl-5-nitro-5'-phenyl-1H,3'H-2,4'-biimidazol-3'-ol] | 23.9 ± 4.88 | – | effect on cell viability (in words) ([2]; 100 μM, murine macrophages): weakly reduced cell viability; cytotoxic effects (in words) ([2]; host cells (murine macrophages) at concentrations near the trypanocidal IC50): did not present cytotoxic effects; viability at 21 h, 1 µM [3]: 97.3%; viability at 21 h, 10 µM [3]: 97.6%; viability at 21 h, 100 µM [3]: 78.7% |
| 2'-(3-Hydroxy-4-methoxy-5-nitrophenyl)-1-methyl-5-nitro-5'-phenyl-1H,3'H-2,4'-biimidazol-3'-ol [Compound 12] | – | – | IC50 [1]: 242 ± 7.54 µM |
| COc1ccc(-c2nc(-c3ccccc3)c(-c3ncc([N+](=O)[O-])n3C)n2O)cc1O [Compound 11, 2'-(3-Hydroxy-4-methoxyphenyl)-1-methyl-5-nitro-5'-phenyl-1H,3'H-2,4'-biimidazol-3'-ol] | 200 ± 2.02 | 213 to 214 °C and 213 °C | – |
| Cn1c([N+](=O)[O-])cnc1-c1c(-c2ccccc2)nc(-c2ccc(Cl)cc2)n1O [Compound 5, 2'-(4-Chlorophenyl)-1-methyl-5-nitro-5'-phenyl-1H,3'H-2,4'-biimidazol-3'-ol] | 34.6 ± 2.43 | 249 to 250 °C | viability at 21 h, 1 µM [3]: 95.7%; viability at 21 h, 10 µM [3]: 97.6%; viability at 21 h, 100 µM [3]: 93.1% |
| Cn1c([N+](=O)[O-])cnc1-c1c(-c2ccccc2)nc(-c2ccc(F)cc2)n1O [Compound 4, 2'-(4-Fluorophenyl)-1-methyl-5-nitro-5'-phenyl-1H,3'H-2,4'-biimidazol-3'-ol] | 67.8 ± 8.39 | – | viability at 21 h, 1 µM [3]: 94.2%; viability at 21 h, 10 µM [3]: 98.9%; viability at 21 h, 100 µM [3]: 97.6% |
| COc1ccc(-c2nc(-c3ccccc3)c(-c3ncc([N+](=O)[O-])n3C)n2O)cc1 [Compound 8, 2'-(4-Methoxyphenyl)-1-methyl-5-nitro-5'-phenyl-1H,3'H-2,4'-biimidazol-3'-ol] | 192 ± 25.3 | 218 to 219 °C | – |
